According to paper PMC8760490, “Discovery of novel furanylbenzamide inhibitors that target oncogenic tyrosine phosphatase SHP2 in leukemia cells” (The Journal of Biological Chemistry, 2021):

Columns and labels:
Type in all cases: biochemical
[1] = molecular target: T1, full-length SHP2-E76K oncogenic mutant (Homo sapiens, UniProt Q06124, E76K); assay: DiFMUP fluorescence phosphatase inhibition assay, SHP2-E76K; conditions: for IC50: DiFMUP at Km (20 μM), 10-point dose–response, pH 6.0
T1 construct: Recombinant human full-length SHP2 (1–594) WT and E76K mutants; made in house
T1 sequence (Q06124 1-593 E76K): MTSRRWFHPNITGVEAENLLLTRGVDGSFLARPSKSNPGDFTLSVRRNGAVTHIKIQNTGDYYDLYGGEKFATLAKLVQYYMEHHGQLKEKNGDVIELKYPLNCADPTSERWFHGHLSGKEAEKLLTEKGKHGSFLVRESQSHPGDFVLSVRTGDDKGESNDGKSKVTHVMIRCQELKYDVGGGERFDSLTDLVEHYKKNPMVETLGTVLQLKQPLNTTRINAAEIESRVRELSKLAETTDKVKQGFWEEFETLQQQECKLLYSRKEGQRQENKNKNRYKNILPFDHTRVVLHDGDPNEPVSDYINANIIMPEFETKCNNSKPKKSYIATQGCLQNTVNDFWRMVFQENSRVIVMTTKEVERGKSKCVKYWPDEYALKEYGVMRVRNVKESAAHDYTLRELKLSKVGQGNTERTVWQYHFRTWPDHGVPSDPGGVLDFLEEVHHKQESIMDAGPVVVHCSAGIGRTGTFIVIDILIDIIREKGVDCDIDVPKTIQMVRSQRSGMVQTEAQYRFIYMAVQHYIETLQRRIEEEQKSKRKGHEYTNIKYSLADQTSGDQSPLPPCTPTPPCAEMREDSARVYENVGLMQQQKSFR
Description: (§1) To test the synthesized compounds for their potential to inhibit SHP2 activity, a fluorescence intensity-based assay using 6,8-difluoro-4-methylumbelliferyl phosphate (DiFMUP) as the substrate was adapted for three recombinant SHP2 constructs: (1) the SHP2 catalytic domain (SHP2cat; residues 248–527), (2) the full-length SHP2-E76K oncogenic mutant, and (3) the full-length SHP2 WT (SHP2-WT). The recombinant SHP2 proteins were expressed and purified as described previously ([36]). A dually phosphorylated peptide derived from the insulin receptor substrate 1 (IRS-1) served as a surrogate binding protein and was used to activate SHP2-WT ([30], [36]). […] Michaelis–Menten experiments to determine the DiFMUP Michaelis–Menten constant (Km) for each SHP2 construct were performed as described previously ([36]) and yielded the following values: SHP2-WT, Km = 60 μM; SHP2-E76K, Km = 20 μM; and SHP2cat, Km = 20 μM. Relative maximum rates (Vmax) of the DiFMUP reactions expressed as relative fluorescence units per minute (RFU/min) were as follows: SHP2-WT, Vmax = 871 RFU/min; SHP2-E76K, Vmax = 2730 RFU/min; and SHP2cat, Vmax = 2912 RFU/min. IC50 values for each compound were determined from initial rates in 10-point dose–response assays using DiFMUP at a concentration corresponding to its Km value for the respective SHP2 construct. […] Replacements for the benzothiophenone were explored using analog #10.
(§2) Recombinant human full-length SHP2 (1–594) WT and E76K mutants, as well as the SHP2cat (248–527), were expressed and purified as described before ([36], [41]). Recombinant human PTP1B (1–300) and the codon-optimized STEP (280–566) catalytic domains were cloned into PET-15b and expressed as N-His-tagged fusion proteins. For expression, transformed BL21(DE3) cells were grown and induced similar as described for SHP2. Collected cells were resuspended in lysis buffer (25 mM Tris, pH 7.5, 300 mM NaCl, 50 mM imidazole, and 10% glycerol) with 100 mg/l RNaseA and were lysed with two passages using a microfluidizer. The lysate was clarified by centrifugation at 15,000g for 50 min and applied to nickel–nitrilotriacetic acid resin. The column resin was washed, and the PTP1B or STEP protein was eluted in lysis buffer at 300 mM imidazole. The PTP1B or STEP protein was further purified by S75 size-exclusion chromatography in 50 mM Tris, pH 7.5, 50 mM NaCl. The eluted peak fractions were supplemented with tris(2-carboxyethyl)phosphine to 10 mM, concentrated by ultrafiltration, and stored at −80 °C. The purified yield of PTP1B was 33 mg/l cell culture; the yield of STEP was 16 mg/l cell culture.
(§3) SHP2 inhibitors were tested at RT in a 384-well plate format standard phosphatase fluorescence intensity assay using DiFMUP (Invitrogen/Thermo Fisher Scientific) as a substrate and a total reaction volume of 25 μl. SHP2 inhibitors or vehicle (DMSO) were spotted in triplicate into a black Greiner FLUOTRAC 200 384-well microplate (catalog no.: 781076; Greiner) for a 10-point dose–response assay using an Echo 555 Liquid Handler (Labcyte, Inc). PTP working solutions were prepared at a 0.625 nM concentration (for a final concentration of 0.5 nM) in buffer containing 50 mM Bis–Tris, pH 6.0, 50 mM NaCl, 5 mM DTT, and 0.01% Tween-20. Prior to the assay, a dually phosphorylated IRS-1 peptide (625 nM [500 nM final] ([30])) was added to full-length WT SHP2 working solutions and incubated for 20 min. DiFMUP working solutions at 5× final concentration were prepared in 50 mM Bis–Tris, pH 6.0, 50 mM NaCl, and 0.01% Tween-20. About 20 μl of PTP working solution was dispensed into the microplate and incubated with inhibitor for 20 min at RT. […] The reaction was initiated by addition of 5 μl DiFMUP working solutions. Fluorescence intensity was measured in kinetic mode (every minute for 7 or 10 min) using a Tecan Spark Multimode Microplate Reader (Tecan) with an excitation wavelength of 360 nm and an emission wavelength of 460 nm. […]

[2] = molecular target: T2, SHP2 catalytic domain (SHP2cat; residues 248–527) (Homo sapiens, UniProt Q06124); assay: DiFMUP fluorescence phosphatase inhibition assay, SHP2cat; conditions: DiFMUP at Km (20 μM), pH 6.0; read-out: SHP2cat; IC50
T2 construct: the SHP2 catalytic domain (SHP2cat; residues 248–527); made in house
T2 sequence (Q06124 248-527): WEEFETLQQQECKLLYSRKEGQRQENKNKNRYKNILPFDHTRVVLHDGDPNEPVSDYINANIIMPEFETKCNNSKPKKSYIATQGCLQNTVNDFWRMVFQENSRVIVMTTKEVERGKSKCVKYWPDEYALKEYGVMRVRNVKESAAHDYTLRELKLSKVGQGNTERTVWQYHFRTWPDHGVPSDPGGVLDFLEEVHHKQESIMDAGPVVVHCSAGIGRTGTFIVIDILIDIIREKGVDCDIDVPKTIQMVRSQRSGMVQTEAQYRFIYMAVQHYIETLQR
Description: as §1, §2, §3

[3] = molecular target: T3, full-length SHP2 WT (SHP2-WT) (Homo sapiens, UniProt Q06124); assay: DiFMUP fluorescence phosphatase inhibition assay, SHP2-WT activated with IRS-1 peptide; conditions: DiFMUP at Km (60 μM), pH 6.0
T3 construct: Recombinant human full-length SHP2 (1–594) WT and E76K mutants; made in house
Description: as §1, §2, §3

SMILES | IC50 [1] | IC50 [2] | IC50 [3] | loss in potency compared with #01 ([1]; E76K IC50)
O=C(O)c1cc(-c2ccc(/C=C3\Oc4ccccc4C3=O)o2)ccc1O [SBI-0165, (Z)-2-Hydroxy-5-(5-((3-oxobenzofuran-2(3H)-ylidene)methyl)furan-2-yl)benzoic acid] | 7.2 µM | 2.4 µM | 13 µM | 
O=C(NNc1ccccc1)c1cc(-c2ccc(/C=C3\Sc4ccccc4C3=O)o2)ccc1O [SBI-2128, (Z)-2-Hydroxy-5-(5-((3-oxobenzo[b]thiophen-2(3H)-ylidene)methyl)furan-2-yl)-N′-phenylbenzohydrazide] | 11 µM | 3.1 µM | 14 µM | 
O=C(NCc1ccccc1)c1cccc(-c2ccc(/C=C3\Sc4ccccc4C3=O)o2)c1 [SBI-2129, (Z)-N-benzyl-3-(5-((3-oxobenzo[b]thiophen-2(3H)-ylidene)methyl)furan-2-yl)benzamide] | 65 µM |  | > 100 µM | 
O=C(Nc1ccccc1)c1cc(-c2ccc(/C=C3\Sc4ccccc4C3=O)o2)ccc1F [SBI-2348, (Z)-2-Fluoro-5-(5-((3-oxobenzo[b]thiophen-2(3H)-ylidene)methyl)furan-2-yl)-N-phenylbenzamide] | > 100 µM |  | > 100 µM | 
COc1ccc(-c2ccc(/C=C3\Sc4ccccc4C3=O)o2)cc1C(=O)Nc1ccccc1 [SBI-2349, (Z)-2-Methoxy-5-(5-((3-oxobenzo[b]thiophen-2(3H)-ylidene)methyl)furan-2-yl)-N-phenylbenzamide] | 84 µM |  | 87 µM | 
O=C1CCCC1=Cc1ccc(-c2ccc(O)c(C(=O)O)c2)o1 [SBI-3191, 2-Hydroxy-5-(5-((2-oxocyclopentylidene)methyl)furan-2-yl)benzoic acid] | 6 µM | 7.4 µM | 24 µM | 
O=C1CCCCC1=Cc1ccc(-c2ccc(O)c(C(=O)O)c2)o1 [SBI-3194, 2-Hydroxy-5-(5-((2-oxocyclohexylidene)methyl)furan-2-yl)benzoic acid] | 39 µM |  | 56 µM | 
O=C(O)c1cc(-c2ccc(C=C3Cc4ccccc4C3=O)o2)ccc1O [SBI-3204, 2-Hydroxy-5-(5-((1-oxo-1,3-dihydro-2H-inden-2-ylidene)methyl)furan-2-yl)benzoic acid] | 10 µM | 4.5 µM | 15 µM | 
O=C1/C(=C/c2ccc(-c3ccccc3)o2)Sc2ccccc21 [SBI-3570, (Z)-2-((5-phenylfuran-2-yl)methylene)benzo[b]thiophen-3(2H)-one] | > 100 µM |  | > 100 µM | 
O=C1/C(=C/c2ccc(-c3ccc(O)cc3)o2)Sc2ccccc21 [SBI-4167, (Z)-2-((5-(4-Hydroxyphenyl)furan-2-yl)methylene)benzo[b]thiophen-3(2H)-one] | 79 µM |  | > 100 µM | ~165 fold
O=C(Nc1ccccc1)c1cc(-c2ccco2)ccc1O [SBI-4232, 5-(Furan-2-yl)-2-hydroxy-N-phenylbenzamide] | > 100 µM |  | > 100 µM | 
O=C(Nc1ccccc1)c1cccc(-c2ccc(/C=C3\Sc4ccccc4C3=O)o2)c1 [SBI-5923, (Z)-3-(5-((3-Oxobenzo[b]thiophen-2(3H)-ylidene)methyl)furan-2-yl)-N-phenylbenzamide] | 52 µM |  | 62 µM | 

More lines, now with the values ahead:

IC50 [1] | IC50 [2] | IC50 [3] | loss in potency compared with #01 ([1]; E76K IC50) | SMILES
20 µM |  | 53 µM |  | CC(C)NC(=O)c1cc(-c2ccc(/C=C3\Sc4ccccc4C3=O)o2)ccc1O [SBI-0287, (Z)-2-Hydroxy-N-isopropyl-5-(5-((3-oxobenzo[b]thiophen-2(3H)-ylidene)methyl)furan-2-yl)benzamide]
> 100 µM |  | > 100 µM |  | O=C(NCCO)c1cc(-c2ccc(/C=C3\Sc4ccccc4C3=O)o2)ccc1O [SBI-1457, (Z)-2-Hydroxy-N-(2-hydroxyethyl)-5-(5-((3-oxobenzo[b]thiophen-2(3H)-ylidene)methyl)furan-2-yl)benzamide]
91 µM |  | > 100 µM |  | O=C1/C(=C/c2ccc(-c3ccc(O)c(C(=O)N4CCNCC4)c3)o2)Sc2ccccc21 [SBI-2124, (Z)-2-((5-(4-Hydroxy-3-(piperazine-1-carbonyl)phenyl)furan-2-yl)methylene)benzo[b]thiophen-3(2H)-one]
> 100 µM |  | > 100 µM |  | CN1CCN(C(=O)c2cc(-c3ccc(/C=C4\Sc5ccccc5C4=O)o3)ccc2O)CC1 [SBI-2125, (Z)-2-((5-(4-Hydroxy-3-(4-methylpiperazine-1-carbonyl)phenyl)furan-2-yl)methylene)benzo[b]thiophen-3(2H)-one]
7.2 µM | 5 µM | 18 µM |  | Nc1cccc(NC(=O)c2cc(-c3ccc(/C=C4\Sc5ccccc5C4=O)o3)ccc2O)c1 [SBI-2126, (Z)-N-(3-Aminophenyl)-2-hydroxy-5-(5-((3-oxobenzo[b]thiophen-2(3H)-ylidene)methyl)furan-2-yl)benzamide]
15 µM | 4.3 µM | 52 µM |  | O=C1/C(=C/c2ccc(-c3ccc(O)c(C(=O)N4CCCCC4)c3)o2)Sc2ccccc21 [SBI-2131, (Z)-2-((5-(4-Hydroxy-3-(piperidine-1-carbonyl)phenyl)furan-2-yl)methylene)benzo[b]thiophen-3(2H)-one]
